These results are taken from patent publication US20140255392A1 (BAYER INTELLECTUAL PROPERTY GMBH, priority 2011, published 2014).

The structures appear in SMILES notation.

The experiment addresses T1, human kinase Mps-1 (Homo sapiens, UniProt P33981).
T1 construct: N-terminally GST-tagged human full length recombinant Mps-1 kinase; GST (N); purchased Invitrogen, Karslruhe, Germany PV4071
T1 sequence (P33981 1-857): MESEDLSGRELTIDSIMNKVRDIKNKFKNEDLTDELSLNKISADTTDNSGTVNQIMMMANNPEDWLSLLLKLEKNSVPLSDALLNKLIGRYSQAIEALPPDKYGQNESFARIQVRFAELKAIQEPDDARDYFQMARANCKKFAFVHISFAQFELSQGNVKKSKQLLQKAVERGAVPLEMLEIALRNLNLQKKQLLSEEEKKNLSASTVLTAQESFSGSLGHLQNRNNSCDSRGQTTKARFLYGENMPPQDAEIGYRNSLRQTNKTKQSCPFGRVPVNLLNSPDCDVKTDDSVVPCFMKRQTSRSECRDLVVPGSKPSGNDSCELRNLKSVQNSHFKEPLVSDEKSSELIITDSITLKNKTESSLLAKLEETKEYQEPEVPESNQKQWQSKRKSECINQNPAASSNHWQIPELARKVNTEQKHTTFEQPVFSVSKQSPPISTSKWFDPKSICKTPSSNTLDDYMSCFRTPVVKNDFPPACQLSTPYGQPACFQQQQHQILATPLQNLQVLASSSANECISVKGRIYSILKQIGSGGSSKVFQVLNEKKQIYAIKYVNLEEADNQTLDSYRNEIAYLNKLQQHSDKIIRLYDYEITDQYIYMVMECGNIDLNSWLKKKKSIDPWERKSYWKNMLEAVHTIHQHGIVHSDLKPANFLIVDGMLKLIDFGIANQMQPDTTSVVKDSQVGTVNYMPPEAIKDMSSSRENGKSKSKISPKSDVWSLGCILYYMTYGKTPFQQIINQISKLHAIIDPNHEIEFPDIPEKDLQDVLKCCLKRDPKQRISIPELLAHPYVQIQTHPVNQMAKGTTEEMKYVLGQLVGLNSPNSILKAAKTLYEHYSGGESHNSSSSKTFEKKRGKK
The experiment in a line: Mps-1 kinase assay (TR-FRET). The following applies: N-terminally GST-tagged human full length recombinant Mps-1; 10 μM ATP; 1 μM peptide substrate; 60 min at 22° C. It counts as biochemical. The protocol:
The human kinase Mps-1 phosphorylates a biotinylated substrate peptide. Detection of the phosphorylated product is achieved by time-resolved fluorescence resonance energy transfer (TR-FRET) from Europium-labelled anti-phospho-Serine/Threonine antibody as donor to streptavidin labelled with cross-linked allophycocyanin (SA-XLent) as acceptor. Compounds are tested for their inhibition of the kinase activity.
N-terminally GST-tagged human full length recombinant Mps-1 kinase (purchased from Invitrogen, Karslruhe, Germany, cat. no PV4071) was used. As substrate for the kinase reaction a biotinylated peptide of the amino-acid sequence […] (C-terminus in amide form, purchased from Biosynthan GmbH, Berlin) was used.
The concentration of Mps-1 in the assay was adjusted to the activity of the enzyme lot and was chosen appropriate to have the assay in the linear range, typical enzyme concentrations were in the range of about 1 nM (final conc. in the 5 μl assay volume).
The resulting mixture was incubated 1 h at 22° C. to allow the binding of the phosphorylated peptide to the anti-phospho(Ser/Thr)-Europium-antibody. Subsequently the amount of phosphorylated substrate was evaluated by measurement of the resonance energy transfer from the Europium-labelled anti-phospho(Ser/Thr) antibody to the Streptavidin-XLent.
(In TR-FRET formats the signal depends on donor and acceptor labels being close together.)
As to `Cc1cc(-c2cnc3c(NCCC(F)(F)F)cc(Sc4ccccc4)cn23)ccc1C(=O)NC1CC1` [Example 3-3, N-cyclopropyl-2-methyl-4-{6-(phenylsulfanyl)-8-[(3,3,3-trifluoropropyl)amino]imidazo[1,2-a]pyridin-3-yl} benzamide], the IC50 – broadly, the concentration that inhibits the measured activity by half – is 0.5 nM.

`Cc1cc(-c2cnc3c(NCCC(F)(F)F)cc(Sc4ccccc4N)cn23)ccc1C(=O)NC1CC1` [Example 3-4, 4-{6-[(2-aminophenyl)sulfanyl]-8-[(3,3,3-trifluoropropyl)amino]imidazo[1,2-a]pyridin-3-yl}-N-cyclopropyl-2-methylbenzamide]: the IC50 was 2 nM.

In the case of `Cc1cc(-c2cnc3c(NCCC(F)(F)F)cc(Sc4cccc(F)c4)cn23)ccc1C(=O)NC1CC1` [Example 3-5], the 50% inhibitory concentration (IC50) amounted to 0.8 nM.

Consider `Cc1cc(-c2cnc3c(NCCC(F)(F)F)cc(Sc4ccccc4O)cn23)ccc1C(=O)NC1CC1` [Example 3-6, N-cyclopropyl-4-{6-[(2-hydroxyphenyl)sulfanyl]-8-[(3,3,3-trifluoropropyl)amino]imidazo[1,2-a]pyridin-3-yl}-2-methylbenzamide], for which the IC50 worked out at 0.4 nM.

With `Cc1cc(-c2cnc3c(NCCC(F)(F)F)cc(S(C)(=O)=O)cn23)ccc1C(=O)NC1CC1` [Example 5-1], the IC50 came out at 84.1 nM.

For `Cc1cc(-c2cnc3c(NCCC(F)(F)F)cc(Oc4cccc(F)c4)cn23)ccc1C(=O)NC1CC1` [Example 6-1, N-cyclopropyl-4-{6-(3-fluorophenoxy)-8-[(3,3,3-trifluoropropyl)amino]imidazo[1,2-a]pyridin-3-yl}-2-methylbenzamide], the IC50 was 0.3 nM.

In the case of `CNC(=O)c1ccc(-c2cnc3c(NCCC(F)(F)F)cc(Oc4cccc(F)c4)cn23)cc1C` [Example 8, 4-{6-(3-Fluorophenoxy)-8-[(3,3,3-trifluoropropyl)amino]imidazo[1,2-a]pyridin-3-yl}-N,2-dimethylbenzamide], the IC50 was 3.4 nM.

For `Cc1cc(-c2cc(NCC3CCOCC3)c3ncc(-c4ccc(C(=O)NC5CC5)c(C)c4)n3c2)ccc1C(=O)NC1CC1` [Example 9, 4,4′-{8-[(Tetrahydro-2H-pyran-4-ylmethyl)amino]imidazo[1,2-a]pyridine-3,6-diyl}bis(N-cyclopropyl-2-methylbenzamide)], the IC50 turned out to be 0.4 nM.

In the case of `CCNC(=O)c1ccc(-c2cnc3c(NCCC(F)(F)F)cc(Oc4cccc(F)c4)cn23)cc1C` [Example 10, N-ethyl-4-{6-(3-fluorophenoxy)-8-[(3,3,3-trifluoropropyl)amino]imidazo[1,2-a]pyridin-3-yl}-2-methylbenzamide], the IC50 amounted to 2.9 nM.

For `Cc1cc(-c2cnc3c(NCCC(F)(F)F)cc(Oc4cccc(F)c4)cn23)ccc1C(=O)NC1(C)CC1` [Example 11, 4-{6-(3-Fluorophenoxy)-8-[(3,3,3-trifluoropropyl)amino]imidazo[1,2-a]pyridin-3-yl}-2-methyl-N-(1-methylcyclopropyl)benzamide], the IC50 turned out to be 3.8 nM.

On to `Cc1cc(-c2cnc3c(NCCC(F)(F)F)cc(Oc4cccc(F)c4)cn23)ccc1C(=O)NC1(C#N)CC1` [Example 13, N-(1-cyanocyclopropyl)-4-{6-(3-fluorophenoxy)-8-[(3,3,3-trifluoropropyl)amino]imidazo[1,2-a]pyridin-3-yl}-2-methylbenzamide], for which the IC50 came to 11.1 nM.

Take `C#Cc1cc(NCCC(F)(F)F)c2ncc(-c3ccc(C(=O)NC)c(C)c3)n2c1` [Example 14, 4-{6-ethynyl-8-[(3,3,3-trifluoropropyl)amino]imidazo[1,2-a]pyridin-3-yl}-N,2-dimethylbenzamide]: the IC50 is 65.2 nM.

Take `C#Cc1cc(NCCC(F)(F)F)c2ncc(-c3ccc(C(=O)NCC)c(C)c3)n2c1` [Example 15, N-ethyl-4-{6-ethynyl-8-[(3,3,3-trifluoropropyl)amino]imidazo[1,2-a]pyridin-3-yl}-2-methylbenzamide]: the IC50 was found to be 55 nM.

`C#Cc1cc(NCCC(F)(F)F)c2ncc(-c3ccc(C(=O)NC4(C)CC4)c(C)c3)n2c1` [Example 17, 4-{6-ethynyl-8-[(3,3,3-trifluoropropyl)amino]imidazo[1,2-a]pyridin-3-yl}-2-methyl-N-(1-methylcyclopropyl)benzamide]: the IC50 stood at 108 nM.

For `C#Cc1cc(NCCC(F)(F)F)c2ncc(-c3ccc(C(=O)NC4(C#N)CC4)c(C)c3)n2c1` [Example 18, N-(1-cyanocyclopropyl)-4-{6-ethynyl-8-[(3,3,3-trifluoropropyl)amino]imidazo[1,2-a]pyridin-3-yl}-2-methylbenzamide], the IC50 turned out to be 65.5 nM.

For the compound `Cc1ccc(F)cc1Oc1cc(NCCC(F)(F)F)c2ncc(-c3ccc(C(=O)NC4CC4)c(C)c3)n2c1` [Example 19, N-cyclopropyl-4-{6-(5-fluoro-2-methylphenoxy)-8-[(3,3,3-trifluoropropyl)amino]imidazo[1,2-a]pyridin-3-yl}-2-methylbenzamide], the IC50 is 0.7 nM.

For `CNC(=O)c1ccc(-c2cnc3c(NCCC(F)(F)F)cc(C#CCO)cn23)cc1C` [Example 20, 4-{6-(3-hydroxyprop-1-yn-1-yl)-8-[(3,3,3-trifluoropropyl)amino]imidazo[1,2-a]pyridin-3-yl}-N,2-dimethylbenzamide], the concentration for half-maximal inhibition (IC50) stood at 41.1 nM.

With `CCNC(=O)c1ccc(-c2cnc3c(NCCC(F)(F)F)cc(C#CCO)cn23)cc1C` [Example 21, N-ethyl-4-{6-(3-hydroxyprop-1-yn-1-yl)-8-[(3,3,3-trifluoropropyl)amino]imidazo[1,2-a]pyridin-3-yl}-2-methylbenzamide], the IC50 worked out at 33.7 nM.

In the case of `Cc1cc(-c2cnc3c(NCCC(F)(F)F)cc(C#CCO)cn23)ccc1C(=O)NC1(C)CC1` [Example 22, 4-{6-(3-hydroxyprop-1-yn-1-yl)-8-[(3,3,3-trifluoropropyl)amino]imidazo[1,2-a]pyridin-3-yl}-2-methyl-N-(1-methylcyclopropyl)benzamide], the IC50 is 50 nM.

`Cc1cc(-c2cnc3c(NCCC(F)(F)F)cc(Oc4cccc(F)c4)cn23)ccc1C(=O)NC1CCC1` [Example 24, N-cyclobutyl-4-{6-(3-fluorophenoxy)-8-[(3,3,3-trifluoropropyl)amino]imidazo[1,2-a]pyridin-3-yl}-2-methylbenzamide]: the IC50 stood at 11.1 nM.

For `CNC(=O)c1ccc(-c2cnc3c(NCCC(F)(F)F)cc(Oc4cc(F)ccc4C)cn23)cc1C` [Example 25, 4-{6-(5-Fluoro-2-methylphenoxy)-8-[(3,3,3-trifluoropropyl)amino]imidazo[1,2-a]pyridin-3-yl}-N,2-dimethylbenzamide], the IC50 stood at 2.9 nM.

Take `Cc1ccc(F)cc1Oc1cc(NCCC(F)(F)F)c2ncc(-c3ccc(C(=O)NC4(C)CC4)c(C)c3)n2c1` [Example 27, 4-{6-(5-Fluoro-2-methylphenoxy)-8-[(3,3,3-trifluoropropyl)amino]imidazo[1,2-a]pyridin-3-yl}-2-methyl-N-(1-methylcyclopropyl)benzamide]: the IC50 was determined as 4.2 nM.

With `Cc1ccc(F)cc1Oc1cc(NCCC(F)(F)F)c2ncc(-c3ccc(C(=O)NC4(C#N)CC4)c(C)c3)n2c1` [Example 28, N-(1-cyanocyclopropyl)-4-{6-(5-fluoro-2-methylphenoxy)-8-[(3,3,3-trifluoropropyl)amino]imidazo[1,2-a]pyridin-3-yl}-2-methylbenzamide], the IC50 was 13.9 nM.

For the compound `Cc1cc(-c2cnc3c(NCCC(F)(F)F)cc(Oc4cccc(F)c4F)cn23)ccc1C(=O)NC1CC1` [Example 30, N-cyclopropyl-4-{6-(2,3-difluorophenoxy)-8-[(3,3,3-trifluoropropyl)amino]imidazo[1,2-a]pyridin-3-yl}-2-methylbenzamide], the IC50 was found to be 0.4 nM.

In the case of `Cc1cc(-c2cnc3c(NCCC(F)(F)F)cc(Oc4cccc(Cl)c4)cn23)ccc1C(=O)NC1CC1` [Example 31, 4-{6-(3-chlorophenoxy)-8-[(3,3,3-trifluoropropyl)amino]imidazo[1,2-a]pyridin-3-yl}-N-cyclopropyl-2-methylbenzamide], the IC50 was 1.3 nM.
